Values of other authors, collected in article PMC3611965 (Nuclear medicine and biology, 2012).
Like-named read-outs stand apart in the source and are kept apart here.

Key:
[1] = test system: FAAH; details: rats; ref [25]; cited from earlier work
[2] = test system: FAAH; details: rhesus monkeys; ref [23]; cited from earlier work
[3] = test system: FAAH; details: human studies; ref [23]; cited from earlier work

## O=[11C](NC1CCCCC1)Oc1ccc(O)c(-c2ccccc2)c1 [[^11 C]-CURB]
[1]
  brain uptake: good brain uptake

## CN(C)C(=O)[C@H]1C[C@@H]1c1ccc(-c2ncn([11CH3])c2Sc2ccc(Cl)cn2)cc1 [[^11 C]MK-3168]
[2]
  brain uptake (PET): Heterogeneous, specific brain uptake
[3]
  brain uptake (PET): high brain uptake
